Results taken from paper PMC9151520 (Archives of Toxicology, 2022).
pEC50: −log10 of the molar value. Several values for one entry are separate records, joined by “and”; a condition that tells them apart may be missing. Equal entries are not always repeated. Where two headings read alike, the source gives them in different places.

Key:
[1] = tested on: p53 signaling (p53RE-bla HCT-116 cells); conditions: for pEC50: read-out: p53 activation EC50
[2] = tested on: p53 signaling (p53RE-bla HCT-116 cells); assay: cells; conditions: Homo sapiens
[3] = tested on: p53 signaling (p53RE-bla HCT-116 cells); assay: cells; type: cell-based
[4] = tested on: p53 signaling (p53RE-bla HCT-116 cells)
[5] = tested on: p53 signaling (p53RE-bla HCT-116 cells); assay: cells; conditions: Homo sapiens; remark: listed apart in the source
[6] = tested on: p53 signaling (p53RE-bla HCT-116 cells); assay: cells; type: cell-based; conditions: Homo sapiens, HCT-116
[7] = tested on: p53 signaling (p53RE-bla HCT-116 cells); assay: cells; type: cell-based; conditions: Homo sapiens, HCT-116, 0.5 h
[8] = HCT-116, read-out: p53 activation efficacy
[9] = HCT-116, read-out: p53 activation EC50, HLM

SMILES	p53 activation efficacy [1]	Viability EC50 (p53RE-bla HCT-116 cells)	Viability efficacy (p53RE-bla HCT-116 cells)	p53 activation efficacy [3]	p53 activation EC50 [4]	pEC50 [2, 9]	Viability EC50, HLM (p53RE-bla HCT-116 cells)	Viability EC50, No MS (p53RE-bla HCT-116 cells)	Viability EC50, RLM (p53RE-bla HCT-116 cells)	Viability Efficacy, HLM (p53RE-bla HCT-116 cells)	Viability Efficacy, No MS (p53RE-bla HCT-116 cells)	Viability Efficacy, RLM (p53RE-bla HCT-116 cells)	p53 activation EC50, No MS [3]	p53 activation Efficacy, No MS [3]	p53 activation EC50, HLM [4]	further results
COC(=O)N(OC)c1ccccc1COc1ccn(-c2ccc(Cl)cc2)n1 [Pyraclostrobin]	inactive	inactive	inactive	41.5523	inactive											p53 activation EC50 [1]: inactive; Emax [2, 8]: 36.3%; Emax ([3]; Homo sapiens, HCT-116, read-out: p53 activation efficacy): 36.4%; pEC50 ([3]; read-out: p53 activation EC50): 5.58
Oc1c(Cl)c(Cl)cc(Cl)c1Cl [2,3,5,6-Tetrachlorophenol]																EC50, p53 activation, cherry pick confirmation [1]: inactive; EC50, p53 activation, primary screening [1]: inactive; Efficacy, p53 activation, cherry pick confirmation [1]: inactive; Efficacy, p53 activation, primary screening [1]: inactive; pEC50 ([2]; HCT-116, read-out: EC50, p53 activation, primary screening): 4.68; Emax ([2]; HCT-116, read-out: Efficacy, p53 activation, primary screening): 35.1%; EC50, viability, cherry pick confirmation (p53RE-bla HCT-116 cells): inactive; EC50, viability, primary screening (p53RE-bla HCT-116 cells): inactive; Efficacy, viability, cherry pick confirmation (p53RE-bla HCT-116 cells): inactive; Efficacy, viability, primary screening (p53RE-bla HCT-116 cells): inactive; pEC50 ([3]; Homo sapiens, HCT-116, read-out: EC50, p53 activation, cherry pick confirmation): 4.53; pEC50 ([3]; Homo sapiens, HCT-116, read-out: EC50, p53 activation, primary screening): 4.61; Emax ([3]; Homo sapiens, HCT-116, read-out: Efficacy, p53 activation, cherry pick confirmation): 31.3%; Emax ([3]; Homo sapiens, HCT-116, read-out: Efficacy, p53 activation, primary screening): 36.3%; EC50, p53 activation, cherry pick confirmation [4]: inactive; Efficacy, p53 activation, cherry pick confirmation [4]: inactive
O=c1ccc2ccccc2o1 [Coumarin]						4.54	inactive	inactive	inactive	inactive	inactive	inactive	inactive	inactive	inactive	p53 activation EC50, RLM [1]: inactive; p53 activation Efficacy, RLM [1]: inactive
Nc1ccc2c(O)cc(S(=O)(=O)O)cc2c1	57.1256 and 31.0337	inactive	inactive	61.5673 and 83.6027	inactive											pEC50 [1]: 4.96; Emax [2, 8]: 27%
COP(=O)(OC)OC(=CCl)c1cc(Cl)c(Cl)cc1Cl [Tetrachlorovinphos]						4.78	inactive	inactive	inactive	inactive	inactive	inactive	inactive	inactive	inactive	
Cl[C@H]1[C@H](Cl)[C@@H](Cl)[C@H](Cl)[C@@H](Cl)[C@@H]1Cl [beta-Hexachlorocyclohexane]						4.33	inactive	inactive	inactive	inactive	inactive	inactive	inactive	inactive	inactive	p53 activation EC50, RLM [1]: inactive; p53 activation Efficacy, RLM [1]: inactive
CCOP(=S)(OCC)SC(CCl)N1C(=O)c2ccccc2C1=O (stereo not drawn) [Dialifor]	52.0707	inactive	inactive	inactive	inactive											pEC50 ([2]; HCT-116, read-out: p53 activation EC50): 5.52; p53 activation EC50 [3]: inactive
COP(=O)(OC)O/C(C)=C/C(=O)N(C)C [Dicrotophos]	47.1617	inactive	inactive	inactive	inactive											pEC50 [1]: 4.84; p53 activation EC50 [3]: inactive; pEC50 ([5]; HCT-116): 4.94; Emax ([5]; HCT-116, read-out: efficacy): 40.6%; pEC50 [6]: 5.04; pEC50 [7]: 4.94
